Assay results taken from patent US8906962B2, “Compositions and methods for treating hair loss using non-naturally occurring prostaglandins” (Duke University, priority 2000, dated 2014).

Key:
hFP = biological target: T1, hFP (Homo sapiens, UniProt P43088); assay: Radioligand Binding Assay (competition with (3H) PGF2 on hFP membranes); details: relative to PGF2α, hFP membranes from transfected COS-7 cells
T1 construct: expressed in transfected cells; host or cells: COS-7 cells, transient transfection with LipofectAMINE; membranes prepared
Procedure: IC50 of a PGF can be determined relative to PGF2α using the Radioligand Binding Assay. As a control, the IC50 for PGF2α itself should be no lower than 1.0 nM and no higher than 5.0 nM.
In this assay, COS-7 cells are transiently transfected with the hFP recombinant plasmid using LipofectAMINE Reagent. Forty-eight hours later, the tranfected cells are washed with Hank's Balanced Salt Solution (HBSS, without CaCl2, MgCl2, MgSO4, or phenol red). The cells are detached with versene, and HBSS is added. The mixture is centrifuged at 200 g for 10 minutes, at 4° C. to pellet the cells. The pellet is resuspended in Phosphate-Buffered Saline-EDTA buffer (PBS; 1 mM EDTA; pH 7.4; 4° C.). The cells are disrupted by nitrogen cavitation (Parr model 4639), at 800 psi, for 15 minutes at 4° C. The mixture is centrifuged at 1000 g for 10 minutes at 4° C. The supernatant is centrifuged at 100,000 g for 60 minutes at 4° C. The pellet is resuspended to 1 mg protein/mL TME buffer (50 mM Tris; 10 mM MgCl2; 1 mM EDTA; pH 6.0; 4° C.) based on protein levels measured using the Pierce BCA Protein Assay kit. The homogenate is mixed for 10 seconds using a Kinematica POLYTRON® (available from KINEMATICA AG, Luzernerstrassel47A CH-6014 Littau, Switzerland). The membrane preparations are then stored at −80° C., until thawed for assay use.
The receptor competition binding assays are developed in a 96 well format. Each well contains […] of hFP membrane, 5 nM (3H) PGF2, and the various competing compounds in a total volume of […]. The plates are incubated at 23° C. for 1 hour. The incubation is terminated by rapid filtration using the Packard Filtermate 196 harvester through Packard UNIFILTER® GF/B filters (available from Packard Instrument Co., Inc. of Downers Grove Ill.) pre-wetted with TME buffer. The filter is washed four times with TME buffer. […] The plates are read on a Packard TOPCOUNT® Microplate Scintillation Counter (also available from Packard Instrument Co., Inc.)

C3H mice = assay: Telogen Conversion Assay (topical, skin colour grade, hair growth); type: in vivo; details: for Grades (average animal score): day 26, visual grade 0 to 4 of skin colour (Table 4)
Procedure: PGF's are tested for their potential to grow hair using the Telogen Conversion Assay. The Telogen Conversion Assay measures the potential of a PGF to convert mice in the resting stage of the hair growth cycle (“telogen”), to the growth stage of the hair growth cycle (“anagen”).
Without intending to be limited by theory, there are three principal phases of the hair growth cycle: anagen, catagen, and telogen. It is believed that there is a longer telogen period in C3H mice (Harlan Sprague Dawley, Inc., Indianapolis, Ind.) from approximately 40 days of age until about 75 days of age, when hair growth is synchronized. It is believed that after 75 days of age, hair growth is no longer synchronized. Wherein about 40 day-old mice with dark fur (brown or black) are used in hair growth experiments, melanogenesis occurs along with hair (fur) growth wherein the topical application of hair growth inducers are evaluated. The Telogen Conversion Assay herein is used to screen PGF's for potential hair growth by measuring melanogenesis.
Three groups of 44 day-old C3H mice are used: a vehicle control group, a positive control group, and a test PGF group, wherein the test PGF group is administered a PGF used in the method of this invention. […] Day 1 is the first day of treatment. Typical dosage concentrations are set forth in Table 3, however the skilled artisan will readily understand that such concentrations may be modified.
The mice are treated topically Monday through Friday on their lower back (base of tail to the lower rib). A pipettor and tip are used to deliver 400 μL to each mouse's back. The 400 μL application is applied slowly while moving hair on the mouse to allow the application to reach the skin.
While each treatment is being applied to the mouse topically, a visual grade of from 0 to 4 will be given to the skin color in the application area of each animal. As a mouse converts from telogen to anagen, its skin color will become more bluish-black.

EP1 receptor = biological target: T2, EP1 receptor (Homo sapiens, UniProt P34995); assay: Receptor selectivity statement (EP1 activation); details: stated without method; said to result in the side effect of pain
T2 sequence (P34995 1-402): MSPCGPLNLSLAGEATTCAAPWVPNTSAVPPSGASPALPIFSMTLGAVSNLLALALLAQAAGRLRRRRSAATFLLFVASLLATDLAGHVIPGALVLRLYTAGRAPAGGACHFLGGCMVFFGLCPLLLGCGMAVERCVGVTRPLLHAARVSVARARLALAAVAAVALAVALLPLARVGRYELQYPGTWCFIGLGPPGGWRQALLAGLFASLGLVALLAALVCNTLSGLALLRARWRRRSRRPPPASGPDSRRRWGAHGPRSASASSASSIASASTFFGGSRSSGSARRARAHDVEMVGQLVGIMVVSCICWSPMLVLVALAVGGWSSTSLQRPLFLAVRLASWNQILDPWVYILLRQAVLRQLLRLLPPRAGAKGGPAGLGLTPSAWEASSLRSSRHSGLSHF

T1 sequence (P43088 whole entry): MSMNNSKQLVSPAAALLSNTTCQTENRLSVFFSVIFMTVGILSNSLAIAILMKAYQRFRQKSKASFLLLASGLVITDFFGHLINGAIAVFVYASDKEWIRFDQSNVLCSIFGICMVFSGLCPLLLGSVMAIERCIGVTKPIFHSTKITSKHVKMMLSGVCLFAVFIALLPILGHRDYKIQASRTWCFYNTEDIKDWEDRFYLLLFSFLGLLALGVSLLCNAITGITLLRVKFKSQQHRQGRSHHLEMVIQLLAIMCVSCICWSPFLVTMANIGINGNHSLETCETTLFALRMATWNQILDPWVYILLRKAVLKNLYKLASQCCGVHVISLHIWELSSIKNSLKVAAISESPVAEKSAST

IC50 (hFP) [nM] | Compound | hair growth / activity (C3H mice; 0.01% topical) | Grades (average animal score) (C3H mice; 0.01%) | hair growth / activity (C3H mice; 0.1% topical) | Grades (average animal score) (C3H mice; 0.1%) | further results
45 | O=C(O)CCCCCC[C@@H]1[C@@H](CCC(O)c2nc3ccccc3s2)[C@H](O)C[C@@H]1O (stereo partly drawn) [13,14-dihydro-15-(2-benzathiozolyl)pentanor Prostaglandin F1α] | – | – | – | – | hair growth (C3H mice; concentration not given): grew hair
19 | O=C(O)CCCCCC[C@@H]1[C@@H](CCC(O)C#Cc2ccccc2F)[C@H](O)C[C@@H]1O (some centres unmarked) [Example 3-1] | – | – | – | – | –
27 | O=C(O)CCCCCC[C@@H]1[C@@H](CCC(O)c2cc3ccccc3s2)[C@H](O)C[C@@H]1O (some centres unmarked) [Example 3-2] | – | – | – | – | –
– | COC(=O)CCC/C=C\C[C@@H]1[C@@H](/C=C/[C@@H](O)COc2cccc(C(F)(F)F)c2)[C@H](O)C[C@@H]1O [Fluprostenol Methyl Ester] | grew hair | 3.9 | grew hair | 2.6 | –
– | N[C@@H](Cc1cc(I)c(Oc2ccc(O)c(I)c2)c(I)c1)C(=O)O [T3 compound, 3,5,3′-triiodothyronine, reference compound] | grew hair | – | – | – | –
– | Latanoprost [reference compound] | active | 0.71 | active | 2.9 | activation of EP1 receptor (nonselective) (EP1 receptor): activates the EP1 receptor
